Values quoted from earlier work, collected in patent US4296101A, “Antibiotic kristenin” (E. R. Squibb & Sons, Inc., priority 1978, dated 1981).

Tested on: gram positive bacteria
Conditions: stated by Okazaki et al., Journal of Antibiotics, Vol. 28, No. 9, pages 717-719

## CCC(N)C(O)C(O)C(C)C(=O)NC(CC(C)C)C1Cc2cccc(O)c2C(=O)O1 (stereo not shown) [baciphelacin]
  active against gram positive bacteria: active against gram positive bacteria
